# Results as given in patent US20110027230A1 (priority 2008, published 2011).
# Legend:
# [1] = test system: cells of the intestinal mucosa; experiment: BrdU cell migration along the villus axis (highest labeled cell); assay type: in vivo, mouse; settings: estrogen s.c., standard diet, 24 h after BrdU
# Experimental: After 10 weeks of treatment the animals received an intraperitoneal injection of 0.75 mg of Bromodeoxyuridine (BrdU), equivalent to 30 mg/kg, to verify the migration of cells of the intestinal mucosa along the villus axis (from crypt at the bottom to the luminal tip). This parameter allows to verify the normal esfoliative physiology of the intestinal mucosa, through which the mucosa keeps itself composed of healthy and vital cells. To this end, the animals were sacrificed 24, 48 and 72 hours after injection. Small intestine and colon were taken from every sacrificed animal. The small intestine was divided into three sections: proximal, medial and distal. The proximal tract was further divided in two portions that were subsequently scraped. One of the two was dipped in RNAlater® and stored at −20° C. and the other stored in liquid nitrogen. The two samples were used for Real Time PCR and Western Blotting, respectively. The medial and distal tracts, together with the colon, were used for the histological analysis. After a 3-hours pre-fixative treatment with formol, the intestinal tracts under examination were observed under an STM1 stereomicroscope, 3× magnification. Two blinded observers measured the number and size of polyps.
# [2] = Body weight, mortality, dietary intake and tolerability during 10 weeks of diet; settings: standard diet, s.c. pellet 1.5 mg 17β-estradiol, mean ± SD
# Experimental: Silymarin up to 200 mg/kg was added to each diet. The diets were orally administered for 10 weeks to 114 male C57BL/6J-APC Min/+ transgenic mice 5-6 weeks old. These mice have a mutation of the APC gene, and are prone to develop colon adenomatous polyposis. […] The statistical analysis has been performed by means of the One-way Analysis of Variance and the t-Student tests, considering statistically significant a p<0.05.
# Every oral treatment lasted 10 weeks. The treatment scheme was designed to highlight the effects of the type of fibre, associated or not with increasing amounts of silymarin.
# [3] = test system: C57BL/6J-APC Min/+ transgenic mice; experiment: Histological grading of dysplasia of adenomatous formations; assay type: in vivo, mouse; settings: estradiol-treated animals
# Source text: Histological preparations of randomly chosen intestine sections of every animal from the different treatment groups were observed by a blinded pathologist, who graded the dysplasia of the adenomatous formations present as minor, mild or severe.
# [4] = test system: C57BL/6J-APC Min/+ transgenic mice; experiment: Number and volume of intestinal polyps in APC Min/+ mice fed different diets for 10 weeks; assay type: in vivo, mouse; settings: standard diet, s.c. pellet 1.5 mg 17β-estradiol, mean ± SD
# Source text: The C57BL/6J APC Min/+ transgenic mouse is an excellent animal model for FAP, because the mutated APC gene is homologous to the human one. Even in the most common form of CRC, called sporadic, 85% of cases show the somatic mutation of the APC tumour suppressor gene. Therefore, the APC mutated transgenic animal model is acknowledged as the most significant for the study of the pathogenetic mechanisms that characterise the adenomatous polyposis in the colon, both in FAP and sporadic form, and it is considered a validated animal model for the set up of nutritional and pharmacological interventions aimed at controlling the development of adenomas and at preventing their progression to CRC (Levy D B et al. Inactivation of both APC alleles in human and mouse tumors. Cancer Res 1994, 54: 5953-5958; Paulsen J E et al. Qualitative and quantitative relationship between dysplastic aberrant crypt foci and tumorigenesis in the Min/+ mouse colon). For this reason, in setting up the oral formulations object of the present invention, and in the evaluation of their safety and efficacy, the Inventors made use of the above mentioned C57BL/6J APC Min/+ transgenic mouse model. Hereafter are described the data showing the effect in C57BL/6J-APC Min/+ transgenic mice, orally fed silymarin added diets, containing soluble and insoluble fibres in different proportions with the purpose of highlighting the differentiative properties of the insoluble and indigestible fibre. […]
# After 10 weeks of treatment the animals received an intraperitoneal injection of 0.75 mg of Bromodeoxyuridine (BrdU), equivalent to 30 mg/kg, to verify the migration of cells of the intestinal mucosa along the villus axis (from crypt at the bottom to the luminal tip). […] Two blinded observers measured the number and size of polyps. […]
# [5] = test system: C57BL/6J-APC Min/+ transgenic mice; settings: female transgenic mice, administration after ovariectomy, Weyant et al.; cited from earlier work
smiles,measurement,setting,value
"C[C@]12CC[C@@H]3c4ccc(O)cc4CC[C@H]3[C@@H]1CC[C@@H]2O [estrogen, 17β-estradiol]",24 hours migration of colonocytes from the crypt to the apex of the villus,[1],47.3 ± 10.5 %
same,Body weight at time of sacrifice,[2],24.9 ± 2.8 g
same,Animals showing polyps with dysplasia classifiable as severe,[3],70%
same,Number of intestinal polyps,[4],32.33 ± 12.06
same,Polyps volume,[4]; listed as Estrogen,141.78 ± 79.1 mm^3
same,Polyps volume,[4]; listed as estradiol,ineffective
same,Intestinal adenomas after ovariectomy,[5],caused a reduction in intestinal adenomas
